Test results published in patent publication US8952024B2, “Herbicidal pyrimidone derivatives” (E I du Pont de Nemours and Company, priority 2009, dated 2015).

Legend:
Type in all cases: in vivo
[1] = system: wheat (Triticum aestivum); experiment: Test A pre-/postemergence plant response; conditions: for Wheat plant response rating: visual injury, 0 to 100 scale (0 no effect, 100 complete control), approx. ten days
Procedure, shortened: (§1)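 Approximately ten days after concurrent pre- and postemergence spraying in a greenhouse, plants were compared with untreated controls and rated visually for injury, 0 = no effect to 100 = complete control. Preemergence spray was directed onto loam/sand soil; postemergence targeted 1–2 leaf seedlings.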

[2] = system: barnyardgrass (Echinochloa crus-galli); experiment: Test A pre-/postemergence plant response; conditions: for Barnyardgrass plant response rating: visual injury, 0 to 100 scale (0 no effect, 100 complete control), approx. ten days
Procedure, shortened: as §1

[3] = system: pigweed (Amaranthus retroflexus); experiment: Test A pre-/postemergence plant response; conditions: for Pigweed plant response rating: visual injury, 0 to 100 scale (0 no effect, 100 complete control), approx. ten days
Procedure, shortened: as §1

[4] = system: morningglory (Ipomoea spp.); experiment: Test A pre-/postemergence plant response
Procedure, shortened: as §1

[5] = system: large crabgrass (Digitaria sanguinalis); experiment: Test A pre-/postemergence plant response; conditions: for Crabgrass, Large plant response rating: visual injury, 0 to 100 scale (0 no effect, 100 complete control), approx. ten days
Procedure, shortened: as §1

[6] = system: giant foxtail (Setaria faberii); experiment: Test A pre-/postemergence plant response; conditions: for Foxtail, Giant plant response rating: visual injury, 0 to 100 scale (0 no effect, 100 complete control), approx. ten days
Procedure, shortened: as §1

corn (Zea mays) = experiment: Test A pre-/postemergence plant response; conditions: for Corn plant response rating: visual injury, 0 to 100 scale (0 no effect, 100 complete control), approx. ten days
Procedure, shortened: as §1

[7] = system: velvetleaf (Abutilon theophrasti); experiment: Test A pre-/postemergence plant response; conditions: for Velvetleaf plant response rating: visual injury, 0 to 100 scale (0 no effect, 100 complete control), approx. ten days
Procedure, shortened: as §1

[8] = system: ducksalad (Heteranthera limosa); experiment: Test B flooded paddy test; conditions: for Plant response rating, Flood, Ducksalad: 250 g ai/ha, flooded paddy test, visual rating on 0 to 100 scale (0 no effect, 100 complete control) after 13 to 15 days; for Plant response rating, Ducksalad: Flood (flooded paddy test), 13 to 15 days; for Ducksalad plant response rating: Flood, 31 g ai/ha, scale 0 to 100 (0 no effect, 100 complete control)
Procedure, shortened: (§2)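 Greenhouse-held for 13 to 15 days, treated pots were compared visually with controls and scored 0–100 (0, no effect). Treatment had been made into paddy water kept at 3 cm above the soil, with plants at the 2-leaf stage.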

[9] = system: barnyardgrass (Echinochloa crus-galli); experiment: Test B flooded paddy test; conditions: for Plant response rating, Flood, Barnyardgrass: 250 g ai/ha, flooded paddy test, visual rating on 0 to 100 scale (0 no effect, 100 complete control) after 13 to 15 days; for Plant response rating, Barnyardgrass: Flood (flooded paddy test), 13 to 15 days; for Barnyardgrass plant response rating: Flood, 31 g ai/ha, scale 0 to 100 (0 no effect, 100 complete control)
Procedure, shortened: as §2

rice (Oryza sativa) = experiment: Test B flooded paddy test; conditions: for Plant response rating, Flood, Rice: 250 g ai/ha, flooded paddy test, visual rating on 0 to 100 scale (0 no effect, 100 complete control) after 13 to 15 days; for Plant response rating, Rice: Flood (flooded paddy test), 13 to 15 days; for Rice plant response rating: Flood, 31 g ai/ha, scale 0 to 100 (0 no effect, 100 complete control)
Procedure, shortened: as §2

[10] = system: umbrella sedge (Cyperus difformis); experiment: Test B flooded paddy test; conditions: for Plant response rating, Flood, Sedge, Umbrella: 250 g ai/ha, flooded paddy test, visual rating on 0 to 100 scale (0 no effect, 100 complete control) after 13 to 15 days; for Plant response rating, Sedge, Umbrella: Flood (flooded paddy test), 13 to 15 days; for Sedge, Umbrella plant response rating: Flood, 31 g ai/ha, scale 0 to 100 (0 no effect, 100 complete control)
Procedure, shortened: as §2

[11] = Postemergence, 125 g ai/ha, 0 to 100 scale where 0 is no effect and 100 is complete control
[12] = Preemergence, 125 g ai/ha, 0 to 100 scale, 0 = no effect, 100 = complete control
[13] = Preemergence, 500 g ai/ha, 0 to 100 scale, 0 = no effect, 100 = complete control
[14] = 62 g ai/ha, scale of 0 to 100 where 0 is no effect and 100 is complete control
[15] = 125 g ai/ha, scale 0 to 100, 0 is no effect, 100 is complete control

O=C1CCCC(O)=C1C(=O)c1cnc(-c2cccc(C(F)(F)F)c2)n(C2CCCCC2)c1=O [Compound 195]
Plant response rating, Wheat [1, 11]: 0 | Wheat plant response rating ([1]; Postemergence, 500 g ai/ha): 0 | Plant response rating, Wheat [1, 12]: 0 | Plant response rating, Wheat [1, 13]: 20 | Plant response rating, Barnyardgrass [2, 11]: 70 | Barnyardgrass plant response rating ([2]; Postemergence, 500 g ai/ha): 90 | Plant response rating, Barnyardgrass [2, 12]: 0 | Plant response rating, Barnyardgrass [2, 13]: 10 | Plant response rating, Pigweed [3, 11]: 90 | Pigweed plant response rating ([3]; Postemergence, 500 g ai/ha): 100 | Plant response rating, Pigweed [3, 12]: 0 | Plant response rating, Pigweed [3, 13]: 10 | Plant response rating, Morningglory [4, 11]: 60 | Plant response rating, Morningglory [4, 12]: 0 | Plant response rating, Morningglory [4, 13]: 0 | Plant response rating, Crabgrass, Large [5, 11]: 40 | Crabgrass, Large plant response rating ([5]; Postemergence, 500 g ai/ha): 90 | Plant response rating, Crabgrass, Large [5, 12]: 0 | Plant response rating, Crabgrass, Large [5, 13]: 50 | Plant response rating, Foxtail, Giant [6, 11]: 30 | Foxtail, Giant plant response rating ([6]; Postemergence, 500 g ai/ha): 70 | Plant response rating, Foxtail, Giant [6, 12]: 0 | Plant response rating, Foxtail, Giant [6, 13]: 30 | Plant response rating, Corn (corn (Zea mays); [11]): 0 | Corn plant response rating (corn (Zea mays); Postemergence, 500 g ai/ha): 20 | Plant response rating, Corn (corn (Zea mays); [12]): 0 | Plant response rating, Corn (corn (Zea mays); [13]): 0 | Plant response rating, Velvetleaf [7, 11]: 100 | Velvetleaf plant response rating ([7]; Postemergence, 500 g ai/ha): 100 | Plant response rating, Velvetleaf [7, 12]: 0 | Plant response rating, Velvetleaf [7, 13]: 50 | Plant response rating, Flood, Ducksalad [8]: 85 | Plant response rating, Ducksalad [8, 14]: 50 | Plant response rating, Ducksalad [8, 15]: 70 | Ducksalad plant response rating [8]: 0 | Plant response rating, Flood, Barnyardgrass [9]: 20 | Plant response rating, Barnyardgrass [9, 14]: 0 | Plant response rating, Barnyardgrass [9, 15]: 0 | Barnyardgrass plant response rating [9]: 0 | Plant response rating, Flood, Rice (rice (Oryza sativa)): 15 | Plant response rating, Rice (rice (Oryza sativa); [14]): 0 | Plant response rating, Rice (rice (Oryza sativa); [15]): 0 | Rice plant response rating (rice (Oryza sativa)): 0 | Plant response rating, Flood, Sedge, Umbrella [10]: 65 | Plant response rating, Sedge, Umbrella [10, 14]: 0 | Plant response rating, Sedge, Umbrella [10, 15]: 50 | Sedge, Umbrella plant response rating [10]: 0

O=C1CCCC(O)=C1C(=O)c1cnc(-c2cccc(F)c2)n(-c2ccccc2)c1=O [Compound 199]
Plant response rating, Wheat [1, 11]: 0 | Wheat plant response rating ([1]; Postemergence, 500 g ai/ha): 10 | Plant response rating, Wheat [1, 12]: 0 | Plant response rating, Wheat [1, 13]: 20 | Plant response rating, Barnyardgrass [2, 11]: 90 | Barnyardgrass plant response rating ([2]; Postemergence, 500 g ai/ha): 100 | Plant response rating, Barnyardgrass [2, 12]: 20 | Plant response rating, Barnyardgrass [2, 13]: 90 | Plant response rating, Pigweed [3, 11]: 100 | Pigweed plant response rating ([3]; Postemergence, 500 g ai/ha): 100 | Plant response rating, Pigweed [3, 12]: 80 | Plant response rating, Pigweed [3, 13]: 100 | Plant response rating, Morningglory [4, 11]: 100 | Morningglory plant response rating ([4]; Postemergence, 500 g ai/ha, visual injury, 0 to 100 scale (0 no effect, 100 complete control), approx. ten days): 100 | Plant response rating, Morningglory [4, 12]: 70 | Plant response rating, Morningglory [4, 13]: 80 | Plant response rating, Crabgrass, Large [5, 11]: 70 | Crabgrass, Large plant response rating ([5]; Postemergence, 500 g ai/ha): 100 | Plant response rating, Crabgrass, Large [5, 12]: 60 | Plant response rating, Crabgrass, Large [5, 13]: 100 | Plant response rating, Foxtail, Giant [6, 11]: 100 | Foxtail, Giant plant response rating ([6]; Postemergence, 500 g ai/ha): 100 | Plant response rating, Foxtail, Giant [6, 12]: 60 | Plant response rating, Foxtail, Giant [6, 13]: 90 | Plant response rating, Corn (corn (Zea mays); [11]): 0 | Corn plant response rating (corn (Zea mays); Postemergence, 500 g ai/ha): 50 | Plant response rating, Corn (corn (Zea mays); [12]): 20 | Plant response rating, Corn (corn (Zea mays); [13]): 30 | Plant response rating, Velvetleaf [7, 11]: 100 | Velvetleaf plant response rating ([7]; Postemergence, 500 g ai/ha): 100 | Plant response rating, Velvetleaf [7, 12]: 90 | Plant response rating, Velvetleaf [7, 13]: 100 | Plant response rating, Flood, Ducksalad [8]: 90 | Plant response rating, Ducksalad [8, 14]: 85 | Plant response rating, Ducksalad [8, 15]: 85 | Ducksalad plant response rating [8]: 85 | Plant response rating, Flood, Barnyardgrass [9]: 25 | Plant response rating, Barnyardgrass [9, 14]: 0 | Plant response rating, Barnyardgrass [9, 15]: 15 | Barnyardgrass plant response rating [9]: 0 | Plant response rating, Flood, Rice (rice (Oryza sativa)): 0 | Plant response rating, Rice (rice (Oryza sativa); [14]): 0 | Plant response rating, Rice (rice (Oryza sativa); [15]): 0 | Rice plant response rating (rice (Oryza sativa)): 0 | Plant response rating, Flood, Sedge, Umbrella [10]: 85 | Plant response rating, Sedge, Umbrella [10, 14]: 70 | Plant response rating, Sedge, Umbrella [10, 15]: 75 | Sedge, Umbrella plant response rating [10]: 60
